According to US20180289008A1, “METHODS FOR WILDFIRE CONTROL, INVASIVE PLANT CONTROL, AND RESIDUAL CONTROL OF INVASIVE PLANTS” (priority 2017, published 2018):

Tests used:
[1] = test system: Curly dock (Rumex crispus); experiment: Greenhouse pre-emergence dose-response bioassay (GR50); type: in vivo; conditions: pre-emergence
Source text: (§1) A greenhouse experiment was designed to determine if the extended control of Dalmatian toadflax and downy brome provided by indaziflam in the field was due to increased residual seedling control. This experiment was designed to compare indaziflam's pre-emergence efficacy to the currently recommended herbicides (aminocyclopyrachlor and aminopyralid) for annual, biennial, and perennial weed control in non-crop areas. […] This allows for direct comparisons between herbicides on an active ingredient basis for aminopyralid, aminocyclopyrachlor, and indaziflam.
(§2) For the greenhouse bioassay, seeds were planted at a constant depth of 0.5 cm in 13- by 9- by 6-cm plastic containers, filled with an Otero sandy clay loam field soil (Coarse-loamy, mixed (calcareous), mesic Aridic Ustorthents) with 3.9% OM and pH 7.7. Seeding densities were adjusted based on germinability to reach a target density of 40 plants/pot. Plants were maintained in a greenhouse with a 25/20° C. day/night temperature with natural light supplemented with high-intensity discharge lamps to give a 15-h photoperiod. Plants were sub-irrigated as needed and misted overhead daily to reduce soil crusting.
(§3) The greenhouse experiment was a completely randomized design with a factorial of seven herbicide rates and a non-treated control with three replicates per treatment. The experiments were conducted at two different times. A preliminary greenhouse study was conducted for each herbicide and species to determine a range of doses that would best fit a logistic regression. It is not unusual for both pre-emergence and post-emergence herbicides to provide control at lower than labeled rates, e.g., 0.5-560 g ai ha^−1 (aminocyclopyrachlor), 0.9-224 g ai ha^−1 (aminopyralid), and 0.05-11.7 g ai ha^−1 (indaziflam) in the greenhouse with ideal environmental conditions, so it was not surprising that herbicide doses for the regression analysis were much lower than recommended field use rates. Herbicides were applied pre-emergence using a Generation III research track sprayer (DeVries Manufacturing, Hollandale, Minn.) equipped with a TeeJet 8002 EVS flat-fan spray nozzle (TeeJet Spraying Systems Co., Wheaton, Ill.) at 187 L·ha-1 at 172 kPa.
(§4) Plants were harvested at the soil surface approximately 4 to 5 week-after-treatment (WAT) depending on the growth stage of each species. Weights were recorded after samples were dried for 5 days at 60° C. Percent dry weight reduction was calculated relative to the non-treated control plants for each treatment.
(§5) Data from the greenhouse dose-response experiment were first analyzed using the PROC MIXED method in SAS 9.3 with treatment as a fixed effect and experiment and replicate as random effects (SAS Institute 2010). Based on a non-significant homogeneity of variance (ANOVA) and experiment-by-herbicide rate interaction, results from the repeated experiments were pooled. The treatment effect was significant, therefore, nonlinear regression in Graphpad Prism 7.00 (GraphPad Software, La Jolla Calif. USA) was used to describe the response of the nine weed species to aminocyclopyrachlor, aminopyralid, and indaziflam. The herbicide concentrations resulting in 50% reduction in plant biomass (GR50) compared to the non-treated control were determined for each invasive weed species using four-parameter log-logistic regression. The equation used to regress herbicide concentration with percent reduction in plant dry biomass as compared to the non-treated control was:
(§6) where C and D represent the lower and upper limits of the dose-response curve, respectively, and b represents the slope of the best-fitting curve through the GR50 value. For curve fitting and GR50 estimation, the model was constrained to a maximum of 100 and minimum of 0. Mean separation of herbicide GR50 values were analyzed by Fisher's Protected LSD test at the 5% level of probability. […]

[2] = test system: downy brome (Bromus tectorum); experiment: as above; type: in vivo; conditions: pre-emergence
Source text: as §1, §2, §3, §4, §5, §6

[3] = test system: Diffuse knapweed (Centaurea diffusa); experiment: as above; type: in vivo; conditions: pre-emergence
Source text: as §1, §2, §3, §4, §5, §6

[4] = test system: Marestail (Conyza Canadensis); experiment: as above; type: in vivo; conditions: pre-emergence
Source text: as §1, §2, §3, §4, §5, §6

[5] = test system: Common teasel (Dipsacus fullonum); experiment: as above; type: in vivo; conditions: for GR50 (herbicide dose resulting in 50% dry biomass reduction): pre-emergence
Source text: as §1, §2, §3, §4, §5, §6

[6] = test system: Common mullein (Verbascum thapsus); experiment: as above; type: in vivo; conditions: pre-emergence
Source text: as §1, §2, §3, §4, §5, §6

[7] = test system: Halogeton (Halogeton glomeratus); experiment: as above; type: in vivo; conditions: pre-emergence
Source text: as §1, §2, §3, §4, §5, §6

[8] = test system: Dalmatian toadflax (Linaria dalmatica); experiment: as above; type: in vivo; conditions: pre-emergence
Source text: as §1, §2, §3, §4, §5, §6

[9] = test system: Musk thistle (Carduus nutans); experiment: as above; type: in vivo; conditions: pre-emergence
Source text: as §1, §2, §3, §4, §5, §6

[10] = test system: Dalmatian toadflax (Linaria dalmatica); experiment: Herbicide efficacy field trial, visual percent control of Dalmatian toadflax; type: in vivo; conditions: 4 YAT
Procedure: The present inventors conducted a field trial to evaluate the effectiveness of herbicides for long-term downy brome and Dalmatian toadflax control. The experiment was conducted at one site. The results provide the framework for the subsequent greenhouse experiment. (See below). The field experiment was located in Longmont, Colo. (lat 40° 14′57.53″N, long 105° 12′35.46″W) on Rabbit Mountain Open Space, the easternmost point of the foothills in Boulder County. The canopy cover of actively growing downy brome and Dalmatian toadflax at peak standing crop was approximately 85% and 30%, respectively. Before herbicide application (June and August), perennial grasses (<10% canopy cover) included primarily western wheatgrass (Pascopyrum smithii (Rydb.) A. Love), and native forbs and sub-shrubs (˜20% canopy cover) included Louisiana sage (Artemisia ludoviciana Nutt.), fringed sage (Artemisia frigida Willd.), common sunflower (Helianthus annuus L.), sulphur-flower buckwheat (Eriogonum umbellatum Torr.), and hairy goldenaster (Heterotheca villosa (Pursh) Shinners). The soil at the study site was Baller sandy loam (loamy-skeletal, mixed, superactive, mesic Lithic Haplustolls), with 1.5% organic matter in the top 20 cm. The average elevation was 1,725 m (5,660 ft). Mean annual precipitation based on the 30-yr average was 363 mm and the mean annual temperature was 9.1° C. […]. A statewide-drought occurred and average total precipitation decreased 134 mm; however, the site received an additional 110 mm above the 30-yr average.
Herbicides were applied in the summer at two application timings; June, when Dalmatian toadflax was in the flowering growth stage, and August, during Dalmatian toadflax regrowth. These two application timings (June and August) were both before downy brome emergence (PRE). The 13 herbicide treatments (including a non-treated control) were applied to 3 by 9 m plots arranged in a randomized complete block design with four replications, and are listed in Table 1. […]
(§7) For the herbicide efficacy field experiment, repeated measures analysis of variance (ANOVA) was used to determine the effects of herbicide treatments on long-term Dalmatian toadflax and downy brome control. Percent control data were first analyzed in SAS 9.3 using Proc MIXED, with year after treatment defined as the repeated measure (SAS Institute 2010). […] Dalmatian toadflax and downy brome control response variables were analyzed separately, and main effects and interactions were tested at the α=0.05 significance level. […] To determine herbicide impacts on residual Dalmatian toadflax and downy brome control, the significant treatment-by-year interaction was evaluated using the Proc GLIMMIX method and the LINES statement. […]

[11] = average; cited from earlier work
[12] = pH 7; cited from earlier work
[13] = test system: downy brome (Bromus tectorum); experiment: Herbicide efficacy field trial, visual percent control of downy brome; type: in vivo; conditions: 4 YAT
Procedure: The present inventors conducted a field trial to evaluate the effectiveness of herbicides for long-term downy brome and Dalmatian toadflax control. The experiment was conducted at one site. The results provide the framework for the subsequent greenhouse experiment. (See below). The field experiment was located in Longmont, Colo. (lat 40° 14′57.53″N, long 105° 12′35.46″W) on Rabbit Mountain Open Space, the easternmost point of the foothills in Boulder County. The canopy cover of actively growing downy brome and Dalmatian toadflax at peak standing crop was approximately 85% and 30%, respectively. […]
as §7

[14] = test system: invasive winter annual grass (downy brome, feral rye, Japanese brome); experiment: Invasive winter annual grass field efficacy studies, biomass as percent of non-treated (Sites 1 and 2 combined); type: in vivo, Bromus tectorum, Secale cereale, Bromus japonicus; conditions: 1 YAT, EPRE timing, imazapic 123 g·ai·ha^−1
Procedure: In year 1, field experiments were conducted to compare the effectiveness of indaziflam and imazapic for long-term invasive winter annual grass control, and to evaluate the response of the native plant communities. The experiments were established at two sites on the Colorado Front Range dominated by invasive winter annual grasses. Site 1 (lat 40° 15′2″N, long 105° 12′56″W) was infested with equal amounts of downy brome and Japanese brome. Site 2 (lat 40° 43′23″N, long 104° 55′58″W) was infested with feral rye. These two sites were approximately 58 km apart. Site 1 was located on Rabbit Mountain Open Space (Boulder County). Site 2 was located on a Colorado Parks and Wildlife Area (Larimer County). Before herbicide application in July, visual estimates were made across the entire study area of percentage of living canopy cover for all species present at both sites.
Site 1 was characterized by ˜80-100% downy brome and Japanese brome canopy cover with a dense fine-fuel layer, e.g., thatch, (2 to 5 cm), and a scattered stand of co-occurring species (˜0-10% canopy cover, Table 4). […]
Biomass harvests and species richness evaluations were conducted in August (year 2 and year 3) to evaluate invasive winter annual grass control and response of co-occurring species. […] Additionally, at Site 1, species richness was calculated for each treatment as a simple estimate of biological diversity. […]

Compound | GR50 (herbicide dose resulting in 50% dry biomass reduction) [1] | GR50 (herbicide dose resulting in 50% dry biomass reduction) [2] [b g ai ha^−1] | GR50 (herbicide dose resulting in 50% dry biomass reduction) [3] | GR50 (herbicide dose resulting in 50% dry biomass reduction) [4] | GR50 (herbicide dose resulting in 50% dry biomass reduction) [5] | GR50 (herbicide dose resulting in 50% dry biomass reduction) [6] | GR50 (herbicide dose resulting in 50% dry biomass reduction) [7] | GR50 (herbicide dose resulting in 50% dry biomass reduction) [8] | GR50 (herbicide dose resulting in 50% dry biomass reduction) [9] | Dalmatian toadflax control ([10]; August application timing) [%] | Dalmatian toadflax control ([10]; June application timing) [%] | water solubility [11] | Log Kow [12] | times more active (lower GR50) compared to aminocyclopyrachlor [5] | times more active (lower GR50) compared to indaziflam [5] | residual downy brome control [13] | invasive winter annual grass control [14] [%]
Nc1nc(C2CC2)nc(C(=O)[O-])c1Cl.[K+] [Aminocyclopyrachlor, aminocyclopyrachlor] | 21.3 b g ai ha^−1 | 56.4 | 6.20 c g ai ha^−1 | 2.09 c g ai ha^−1 | 6.89 c g ai ha^−1 | 3.05 b g ai ha^−1 | 1.04 b g ai ha^−1 | 1.16 b g ai ha^−1 | 1.25 b g ai ha^−1 | 55 | 50 | 4,200 mg L-1 | −2.48 | – | – | – | –
Nc1cc(Cl)nc(C(=O)O)c1Cl [Aminopyralid, aminopyralid] | 1.25 a g ai ha^−1 | 38.5 | 2.50 b g ai ha^−1 | 0.80 b g ai ha^−1 | 0.75 a g ai ha^−1 | 7.45 c g ai ha^−1 | 3.11 c g ai ha^−1 | 14.8 c g ai ha^−1 | 0.31 a g ai ha^−1 | – | – | 207,000 mg L-1 | −2.87 | 9 | 2 | – | –
Cc1cnc(C2=NC(=O)C(C)(C(C)C)N2)c(C(=O)O)c1 (stereo not drawn) [Imazapic, imazapic] | – | – | – | – | – | – | – | – | – | – | – | – | 0.01 | – | – | less than 25% | ~41
Nc1c(Cl)c(Cl)nc(C(=O)O)c1Cl [Picloram, picloram] | – | – | – | – | – | – | – | – | – | 64 | 68 | 200,000 mg L-1 | 1.18 | – | – | – | –
